Patent publication US9738629B2, “Bridged ring compounds as Hepatitis C virus inhibitors, pharmaceutical compositions and uses thereof” (SUNSHINE LAKE PHARMA CO., LTD., priority 2014, dated 2017)
pEC50: −log10 of the molar value.

What was measured:
HCV GT1a replicon = test: HCV replicon assay, genotype 1a, in Huh-7 cells; format: cell-based; details: Hepatitis C virus; Huh-7 cells stably transfected with HCV GT1a replicon, 72 hours incubation; luciferase or NEO gene qPCR readout; read-out: EC50 against HCV 1a genotype
Procedure: (§1) HCV Replicon System was utilized as a screening model in the present disclosure to evaluate the antivirus effects of the compounds disclosed herein against HCV. HCV Replicon assay was first described in Science, 1999, 285 (5424), 110-3. […] To determine the potential anti-HCV effects of the test compounds, luciferase assay and antibiotic Neomycin resistance gene were tested according to the method described in Science. 1999 Jul. 2; 285 (5424), 110-3 and J. Virol. 2003 March; 77 (5), 3007-19.
(§2) In a word, the compounds disclosed herein were tested by using human hepatic carcinoma cell line Huh-7 which is transfected stably with HCV GT1a, GT1b or GT2a replicon respectively, and resistant cells of Y93H, L31F, P32L or I302V and wild-type cells HCV 1b. HCV Replicon System disclosed herein contains G418 resistance gene NEO and Luciferase Reporter Gene, and the level of HCV replication in host cells is detected and characterized by the expression level of the NEO gene or Luciferase Reporter Gene, so the effects of the compounds herein inhibit HCV replication can be evaluated in this system. In this article, a real-time quantitative polymerase chain reaction (qPCR) method was used to detect NEO gene expression level, and chemiluminescence method was used to test Luciferase Reporter Gene expression level.
(§3) The Huh-7 cells transfected with HCV replicons system were seeded into 96-well plates (8,000 cells in 125 μL/well) respectively; each test compound was diluted to desired concentration using 5-fold serial dilutions protocol, 10 doses in duplicate (initial concentration for 10 nM) and added to wells with POD™ 810 Plate Assembler. The plates were incubated in a CO2 incubator for 72 hours; after that, 40 μL of Luciferase assay substrate (Promega Bright-Glo) was added to each well, and detected by a chemiluminescence detection system (Topcount Microplate Scintillation and Luminescence Counter) 5 minutes later; the EC50 (half-maximal effective concentration, concentration for 50% of maximal effect) values of test compounds were analyzed by GraphPad Prism software. In this paper, experiments were repeated twice and set the wells without compounds as negative control.
as §3, with “hours;” for “hours; after that, 40 μL of Luciferase assay substrate (Promega Bright-Glo) was added to each well,”, “the expression level of the NEO gene expression with real-time quantitative PCR” for “by a chemiluminescence detection system (Topcount Microplate Scintillation and Luminescence Counter) 5 minutes”, “software, respectively.” for “software.”

HCV GT1b replicon = test: HCV replicon assay, genotype 1b, in Huh-7 cells; format: cell-based; details: Hepatitis C virus; Huh-7 cells stably transfected with HCV GT1b replicon, 72 hours incubation; luciferase or NEO gene qPCR readout; read-out: EC50 against HCV 1b genotype
Procedure: as §1, §2, §3
as §3, with “hours;” for “hours; after that, 40 μL of Luciferase assay substrate (Promega Bright-Glo) was added to each well,”, “the expression level of the NEO gene expression with real-time quantitative PCR” for “by a chemiluminescence detection system (Topcount Microplate Scintillation and Luminescence Counter) 5 minutes”, “software, respectively.” for “software.”

Structure (SMILES)	pEC50 (HCV GT1a replicon)	pEC50 (HCV GT1b replicon)
COC(=O)N[C@H](C(=O)N1C[C@@H](C)C[C@H]1c1nc2ccc(-c3ccc(-c4ccc(-c5cnc(C6CC[C@H](C)N6C(=O)[C@@H](NC(=O)OC)C(C)C)[nH]5)cc4)c4c3C3CCC4C3)cc2[nH]1)C(C)C (stereo partly shown) [Example 2]	11.40	11.40
CCC(C)[C@H](NC(=O)OC)C(=O)N1C[C@@H](CC)C[C@H]1c1ncc(-c2ccc(-c3ccc(-c4ccc5nc([C@@H]6CC[C@H](C)N6C(=O)[C@@H](NC(=O)OC)C(C)C)[nH]c5c4)c4c3C3CCC4C3)cc2)[nH]1 (stereo partly shown) [Example 10]	10.24	11.05
COC(=O)N[C@H](C(=O)N1[C@@H](C)CC[C@H]1c1nc2ccc(-c3ccc(-c4ccc(-c5cnc([C@@H]6C[C@@H]7CCC[C@@H]7N6C(=O)[C@@H](NC(=O)OC)[C@@H](C)OC)[nH]5)cc4)c4c3C3CCC4C3)cc2[nH]1)C(C)C (stereo partly shown) [Example 11]	9.63	10.92
COC(=O)N[C@H](C(=O)N1C(c2ncc(-c3ccc(-c4ccc(-c5ccc6nc([C@@H]7CC[C@H](C)N7C(=O)[C@@H](NC(=O)OC)C(C)C)[nH]c6c5)c5c4C4CCC5C4)cc3)[nH]2)CC[C@@H]1C)C(C)C (stereo partly shown) [Example 3]	11.10	11.30
COC[C@H]1C[C@@H](c2ncc(-c3ccc(-c4ccc(-c5ccc6nc([C@@H]7CC[C@H](C)N7C(=O)[C@@H](NC(=O)OC)C(C)C)[nH]c6c5)c5c4C4CCC5C4)cc3)[nH]2)N(C(=O)[C@@H](NC(=O)OC)C(C)C)C1 (stereo partly shown) [Example 9]	9.91	11.10
COC(=O)N[C@H](C(=O)N1C[C@@H](C)CC1c1ncc(-c2ccc(-c3ccc(-c4ccc5nc([C@@H]6CC[C@H](C)N6C(=O)[C@@H](NC(=O)OC)C(C)C)[nH]c5c4)c4c3C3CCC4C3)cc2)[nH]1)C(C)C (stereo partly shown) [Example 4]	9.88	11.30
COC(=O)N[C@H](C(=O)N1C[C@@H](C)C[C@H]1c1ncc(-c2ccc(-c3ccc(-c4ccc5nc([C@@H]6CC[C@H](C)N6C(=O)[C@H](NC(=O)OC)c6ccccc6)[nH]c5c4)c4c3C3CCC4C3)cc2)[nH]1)C(C)C (stereo partly shown) [Example 6]	10.49	11.22
COC(=O)N[C@H](C(=O)N1C[C@@H](C)C[C@H]1c1ncc(-c2ccc(-c3ccc(-c4ccc5nc([C@@H]6CC[C@H](C)N6C(=O)[C@@H](NC(=O)OC)C6CCOCC6)[nH]c5c4)c4c3C3CCC4C3)cc2)[nH]1)C(C)C (stereo partly shown) [Example 7]	10.06	11.30
COC(=O)NC(C(=O)N1C[C@@H](C)CC1c1ncc(-c2ccc(-c3ccc(-c4ccc5nc([C@@H]6CC[C@H](C)N6C(=O)[C@@H](NC(=O)OC)C(C)C)[nH]c5c4)c4c3C3CCC4C3)cc2)[nH]1)c1ccccc1 (stereo partly shown) [Example 5]	10.01	11.15
CC[C@H]1CC[C@@H](c2nc3ccc(-c4ccc(-c5ccc(-c6cnc([C@@H]7C[C@H](C)CN7C(=O)[C@@H](NC(=O)OC)C(C)C)[nH]6)cc5)c5c4C4CCC5C4)cc3[nH]2)N1C(=O)[C@@H](NC(=O)OC)C(C)C (stereo partly shown) [Example 8]	10.20	11.05
COC(=O)N[C@H](C(=O)N1C(c2ncc(-c3ccc(-c4ccc(-c5cnc([C@@H]6CC[C@H](C)N6C(=O)[C@@H](NC(=O)OC)C(C)C)[nH]5)c5c4C4CCC5C4)cc3)[nH]2)CC[C@@H]1C)C(C)C (stereo partly shown) [Example 1]	10.72	11.40
